Our source for the Preservation stability and optical stability values is US10633353B2, “Polymerizable compound, composition, polymer, optically anisotropic body, liquid crystal display element, and organic EL display” (DIC Corporation, priority 2014, dated 2020).

Data set [1] can be described thus: Preservation stability of the coating liquid. It is filed as physicochemical. The procedure, abridged: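 Coating liquid stored 2 months at 0° C shielded from light, then graded A–E. Grades rest on visual appearance, change in composition by GPC, and weight ratio of insoluble components to total solids.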
Data set [2] in a line: Optical stability of the optical film (xenon-lamp irradiation). It counts as physicochemical. As to conditions: summary in words. How it is done: The coating liquid was applied to a glass substrate by spin coating, the glass substrate including a rubbed polyimide layer deposited thereon. The glass substrate was then placed on a hot plate, dried at 80° C. for 1 minute, and further dried at 140° C. for another 1 minute. Subsequently, irradiation with ultraviolet radiation at 1000 mJ/cm and 140° C. was performed.
The optical film was irradiated with light at 50 mW/cm^2, 25° C., and 100 J using a xenon-lamp irradiation testing machine (SUNTEST XLS, produced by Atlas). The optical stability of the optical film was evaluated on a scale of A to E below.
A: No change in the film was visually confirmed. An inspection of the optical film with a polarized light microscope also confirmed no defects.
B: Although no change in the film was visually confirmed, an inspection of the optical film with a polarized light microscope confirmed slight orientation defects.
C: Slight yellowing of the film was visually confirmed.
D: Yellowing of the film was visually confirmed. In addition, the optical film was partly detached from the glass substrate.
E: Yellowing of the entire film was visually confirmed. In addition, the optical film was detached from the glass substrate.

Where [3] appears, read: coating liquid stored for 2 months shielded from light at 0° C., appearance and GPC.

Consider `C=CC(=O)OCCCCCCOc1ccc(OC(=O)C2CCC(C(=O)OCCc3ccc(OC(=O)C4CCC(C(=O)Oc5ccc(OCCCCCCOC(=O)C=C)cc5)CC4)c(/C=N/N(CCCCCC)c4nc5ccccc5s4)c3)CC2)cc1` (stereo not drawn) [1-cmn-82], for which the values for the Preservation stability result in data set [1] (setting [3]) and in data set [1] (summary in words) were “A (No visual change in the appearance of the coating liquid was confirmed. A GPC analysis of the coating liquid confirmed that the change in the composition of the coating liquid was 1% or less.)” and “high”, respectively. For the same compound, the optical stability result in data set [2] is “high”. Consider `C=CC(=O)OCCCCCCOC(=O)/C=C/c1ccc(C(=O)Oc2ccc(OC(=O)c3ccc(/C=C/C(=O)OCCCCCCOC(=O)C=C)cc3)c(/C=N/Nc3nc4ccccc4s3)c2)cc1` [1-j-62], for which the Preservation stability result in data set [1] (setting [3]) is “B (No visual change in the appearance of the coating liquid was confirmed. A GPC analysis of the coating liquid confirmed that the change in the composition of the coating liquid was 2% or less.)”. On the same count and under the same terms, the same measure for `C=CC(=O)OCCCCOC(=O)/C=C/c1ccc(C(=O)Oc2ccc(OC(=O)c3ccc(/C=C/C(=O)OCCCCOC(=O)C=C)cc3)c(/C=N/N(c3ccccc3)c3ccccc3)c2)cc1` [1-j-64]: “B (No visual change in the appearance of the coating liquid was confirmed. A GPC analysis of the coating liquid confirmed that the change in the composition of the coating liquid was 2% or less.)”; for `C=CC(=O)OCCCCOC(=O)/C=C/c1ccc(C(=O)Oc2ccc(OC(=O)c3ccc(/C=C/C(=O)OCCCCOC(=O)C=C)cc3)c(/C=N/Nc3nc4ccc5ccccc5c4s3)c2)cc1` [1-j-65]: “B (No visual change in the appearance of the coating liquid was confirmed. A GPC analysis of the coating liquid confirmed that the change in the composition of the coating liquid was 2% or less.)”; for `C=CC(=O)OCCCCCCOc1ccc(C(=O)Oc2ccc(OC(=O)c3ccc(OCCCCCCOC(=O)C=C)cc3)c3sc(-c4ccc([N+](=O)[O-])cc4)nc23)cc1` [r-1, reference compound]: “D (A visual change in the appearance of the coating liquid was confirmed; insoluble components were confirmed. The ratio of the weight of the insoluble components to the total solid content was 5% or less.)”. The same measure, in the same setting: the entry for `C=CC(=O)OCCCCCCOc1ccc(OC(=O)C2CCC(C(=O)Oc3ccc(OC(=O)C4CCC(C(=O)Oc5ccc(OCCCCCCOC(=O)C=C)cc5)CC4)c4c3SC(=C(C#N)C#N)S4)CC2)cc1` (stereo not drawn) [r-2, reference compound] is “C (A visual change in the appearance of the coating liquid was confirmed; a trace amount of insoluble components were confirmed, or a GPC analysis of the coating liquid confirmed that the change in the composition of the coating liquid was 3% or less.)”; for `C=CC(=O)OCCCCCCOC1CCC(OC(=O)C2CCC(C(=O)Oc3ccc(OC(=O)C4CCC(C(=O)OC5CCC(OCCCCCCOC(=O)C=C)CC5)CC4)c4c3SC(=C(C#N)C(=O)OCC)S4)CC2)CC1` (stereo not drawn) [r-3, reference compound] it is “C (A visual change in the appearance of the coating liquid was confirmed; a trace amount of insoluble components were confirmed, or a GPC analysis of the coating liquid confirmed that the change in the composition of the coating liquid was 3% or less.)”.
